In brackets after ≈: the same amount, converted by molar mass.
Experiments:
[1] = test system: M. tuberculosis H37Rv expressing the green fluorescent protein (H37Rv-GFP); assay: microbe, parasite or virus in culture; format: cell-based; conditions: for MIC50: Mycobacterium tuberculosis, H37RV, 120 h, read-out: QUM (MIC50)
[2] = test system: Raw 264.7 cells infected with H37Rv-GFP; assay: microbe, parasite or virus in culture; format: cell-based, M. tuberculosis; conditions: for MIC50: Mycobacterium tuberculosis, H37RV, 120 h, read-out: QIM (MIC50)

Row | Structure (SMILES) | MIC50 [1] [µM] | MIC50 [2] [µM] | QUM (MIC50, uM) [1] | QIM (MIC50, uM) [2]
1 | Cc1ccc(-c2ccc(NC(=O)c3cc4sc(N5CCC(C(=O)N(C)C)CC5)nc4s3)cc2)nc1 [Compound 217] | 1 to 20 (≈ 0.506 to 10.1 µg/mL) | < 1 |  | 
2 | COC(CN(C)c1nc2sc(C(=O)Nc3ccc4oc(C)nc4c3)cc2s1)C(F)(F)F (stereo not drawn) [Compound 263] | > 20 | > 20 |  | 
3 | Cc1nc2cc(NC(=O)c3cc4sc(NCCN5CCCCC5)nc4s3)ccc2o1 [Compound 297] | > 20 | 1 to 20 (≈ 0.442 to 8.83 µg/mL) |  | 
4 | O=C(Nc1ccc(F)cc1)c1cc2sc(N3CCC(COc4ccc(Cl)cc4)CC3)nc2s1 [Compound 245] | 1 to 20 (≈ 0.502 to 10 µg/mL) | < 1 |  | 
5 | O=C(Nc1ccc(-c2ccc(F)cn2)cc1)c1cc2sc(NCCCN3CCOCC3)nc2s1 [Compound 328] | < 1 | < 1 |  | 
6 | O=C(Nc1ccc(OCc2ccccc2)cc1)c1cc2sc(N3CCCCC3)nc2s1 [Compound 44] | > 20 | < 1 |  | 
7 | COCCN(C)c1nc2sc(C(=O)Nc3ccc4oc(C)nc4c3)cc2s1 [Compound 202] | < 1 | < 1 |  | 
8 | Cc1ccc(-c2ccc(NC(=O)c3cc4sc(N5CCC(C(=O)N(C)C)CC5)nc4s3)cc2)nc1.Cl [Compound 258] |  |  | ++ (++ indicates between 1-20 uM) | +++ (+++ indicates <1 uM)
9 | COc1ccc(Cn2cc(F)c(-c3ccc(NC(=O)c4cc5sc(N6CCOCC6)nc5s4)cc3)n2)cc1 [Compound 158] | 1 to 20 (≈ 0.55 to 11 µg/mL) | < 1 |  | 
10 | Cc1ccc(-c2ccc(NC(=O)c3cc4sc(N5CCOCC5)nc4s3)cc2)nc1 [Compound 218] | > 20 | < 1 |  | 
11 | COC(=O)C1CCN(C(=O)c2cc3nc(N4CCCCC4)sc3s2)CC1 [Compound 24] | 1 to 20 (≈ 0.394 to 7.87 µg/mL) | > 20 |  | 
12 | C#CCOc1ccc(-c2ccc(NC(=O)c3cc4sc(N(C)CCOC)nc4s3)cc2)cc1 [Compound 358] | < 1 | < 1 |  | 
13 | O=C(Nc1ccc(F)cc1)c1cc2sc(N3CCC(Oc4ccc(Cl)cc4)CC3)nc2s1 [Compound 235] | > 20 | < 1 |  | 
14 | COc1ccc(NC(=O)c2cc3sc(N4CCC(C(=O)O)CC4)nc3s2)cc1 [Compound 149] | 1 to 20 (≈ 0.418 to 8.35 µg/mL) | 1 to 20 (≈ 0.418 to 8.35 µg/mL) |  | 
15 | CN(C)C(=O)C1CCN(c2nc3sc(C(=O)Nc4ccc(-c5nn(C)cc5Cl)cc4)cc3s2)CC1 [Compound 276] | > 20 | < 1 |  | 
16 | CN(C)C(=O)C1CCN(c2nc3sc(C(=O)Nc4ccc(-c5nn(C)cc5F)cc4)cc3s2)CC1 [Compound 228] | < 1 | < 1 |  | 
17 | O=C(Nc1ccc(N2CCC(Oc3ccc(F)cc3)CC2)cc1)c1cc2sc(NCCN3CCOCC3)nc2s1 [Compound 295] | > 20 | > 20 |  | 
18 | O=C(Nc1ccc2[nH]cnc2c1)c1cc2sc(N3CCOCC3)nc2s1 [Compound 113] | > 20 | > 20 |  | 
19 | COCCNc1nc2sc(C(=O)Nc3ccc4oc(C)nc4c3)cc2s1 [Compound 266] | < 1 | < 1 |  | 
20 | COc1ccc(NC(=O)c2cc3sc(N4CCc5cc(OC)ccc5C4)nc3s2)cc1 [Compound 168] | 1 to 20 (≈ 0.452 to 9.03 µg/mL) | < 1 |  | 
21 | COCCN(c1nc2sc(C(=O)Nc3ccc4oc(C)nc4c3)cc2s1)C(C)C [Compound 242] | 1 to 20 (≈ 0.431 to 8.61 µg/mL) | < 1 |  | 
22 | O=C(Nc1ccc(-c2ccc(F)nc2)cc1)c1cc2sc(NCCOc3ccc(Cl)cc3)nc2s1 [Compound 301] | > 20 | < 1 |  | 

Row | Structure (SMILES) | MIC50 [1] [µM] | MIC50 [2] [µM] | QUM (MIC50, uM) [1] | QIM (MIC50, uM) [2]
23 | Cc1nc2cc(NC(=O)c3cc4sc(N5CCC(C(O)c6ccc(Cl)cc6)CC5)nc4s3)ccc2o1 (stereo not drawn) [Compound 206] | > 20 | < 1 |  | 
24 | COC(=O)c1ccc(NC(=O)c2cc3nc(N4CCCCC4)sc3s2)cc1 [Compound 13] | 1 to 20 (≈ 0.402 to 8.03 µg/mL) | < 1 |  | 
25 | Cc1nc2cc(NC(=O)c3cc4sc(N5CC[C@@H](C(=O)N(C)C)C5)nc4s3)ccc2o1 [Compound 223] | 1 to 20 (≈ 0.456 to 9.11 µg/mL) | 1 to 20 (≈ 0.456 to 9.11 µg/mL) |  | 
26 | CN(CCO)c1nc2sc(C(=O)Nc3ccc4oc(Cc5ccc(F)cc5)nc4c3)cc2s1 [Compound 251] | 1 to 20 (≈ 0.483 to 9.65 µg/mL) | < 1 |  | 
27 | CCN(CCOC)c1nc2sc(C(=O)Nc3ccc4oc(C)nc4c3)cc2s1 [Compound 269] | > 20 | > 20 |  | 
28 | COCCN(C)c1nc2sc(C(=O)Nc3ccc(-c4ccc(F)nc4)cc3)cc2s1 [Compound 271] | < 1 | < 1 |  | 
29 | O=C(Nc1ccc(F)cn1)c1cc2sc(N3CCOCC3)nc2s1 [Compound 105] | 1 to 20 (≈ 0.364 to 7.29 µg/mL) | < 1 |  | 
30 | COCCN(C)c1nc2sc(C(=O)Nc3ccc(-c4ccc(OC)nc4)cc3)cc2s1 [Compound 265] | < 1 | < 1 |  | 
31 | CC(C)(C)CC(=O)NC1CCN(c2nc3sc(C(=O)Nc4ccc(-c5ccc(F)nc5)cc4)cc3s2)CC1 [Compound 348] | > 20 | < 1 |  | 
32 | CC1CCN(c2ccc(NC(=O)c3cc4sc(N5CCNCC5)nc4s3)cc2)CC1 [Compound 344] | 1 to 20 (≈ 0.442 to 8.83 µg/mL) | < 1 |  | 
33 | Cc1nc2cc(NC(=O)c3cc4sc(NCCN5CCOCC5)nc4s3)ccc2o1 [Compound 224] | 1 to 20 (≈ 0.444 to 8.87 µg/mL) | < 1 |  | 
34 | CC(C)(C)CC(=O)NC1CCN(c2nc3sc(C(=O)Nc4ccc(F)cc4)cc3s2)CC1 [Compound 304] | > 20 | < 1 |  | 
35 | N#Cc1ccc(NC(=O)c2cc3sc(N4CCC(O)CC4)nc3s2)cc1 [Compound 133] | 1 to 20 (≈ 0.384 to 7.69 µg/mL) | < 1 |  | 
36 | CN(C)C(=O)C1CCN(c2nc3sc(C(=O)Nc4ccc(-c5ccc(F)cc5)nc4)cc3s2)CC1 [Compound 231] | < 1 | < 1 |  | 
37 | Cc1nc2cc(NC(=O)c3sc4nc(N5CCOCC5)sc4c3N)ccc2o1 [Compound 230] | > 20 | > 20 |  | 
38 | Cc1nc2cc(NC(=O)c3cc4sc(NCCN5CCN(C)CC5)nc4s3)ccc2o1 [Compound 326] | > 20 | > 20 |  | 
39 | CN1CCCC(Nc2nc3sc(C(=O)Nc4ccc(F)cc4)cc3s2)C1 (stereo not drawn) [Compound 311] | > 20 | 1 to 20 (≈ 0.391 to 7.81 µg/mL) |  | 
40 | CN(CCO)c1nc2sc(C(=O)Nc3ccc(-c4ccc(F)nc4)cc3)cc2s1 [Compound 272] | < 1 | < 1 |  | 
41 | COCCN(C)c1nc2sc(C(=O)Nc3ccc(-c4ccc(F)cc4)cn3)cc2s1 [Compound 273] | 1 to 20 (≈ 0.443 to 8.85 µg/mL) | < 1 |  | 
42 | O=C(Nc1ccc(Oc2ccc(Cl)cc2)cc1)c1cc2sc(N3CCNCC3)nc2s1 [Compound 345] | 1 to 20 (≈ 0.471 to 9.42 µg/mL) | < 1 |  | 
43 | CN(C)C(=O)C1CCN(c2nc3sc(C(=O)Nc4ccc(-c5ccc(F)cc5)cn4)cc3s2)CC1 [Compound 246] | 1 to 20 (≈ 0.51 to 10.2 µg/mL) | < 1 |  | 
44 | CN(C)C(=O)[C@@H]1CCN(c2nc3sc(C(=O)Nc4ccc(F)cc4)cc3s2)C1 [Compound 309] | 1 to 20 (≈ 0.419 to 8.37 µg/mL) | < 1 |  | 

Row | Structure (SMILES) | MIC50 [1] [µM] | MIC50 [2] [µM] | QUM (MIC50, uM) [1] | QIM (MIC50, uM) [2]
45 | CN(C)C(=O)CC1CCN(c2nc3sc(C(=O)Nc4ccc(F)cc4)cc3s2)C1 (stereo not drawn) [Compound 332] | < 1 | < 1 |  | 
46 | Cc1nc2cc(NC(=O)c3cc4sc(N5CC[C@H](C(=O)N(C)C)C5)nc4s3)ccc2o1 [Compound 215] | < 1 | < 1 |  | 
47 | CN(CCO)c1nc2sc(C(=O)Nc3ccc(N4CCC(Oc5ccc(F)cc5)CC4)cc3)cc2s1 [Compound 250] | > 20 | < 1 |  | 
48 | CN(C)C(=O)C1CCN(c2nc3sc(C(=O)Nc4ccc(-c5ccn(C)n5)cc4)cc3s2)CC1 [Compound 203] | < 1 | < 1 |  | 
49 | CC(C)(C)OC(=O)N1CCN(c2nc3sc(C(=O)Nc4ccc(-c5ccc(F)cn5)cc4)cc3s2)CC1 [Compound 306] | > 20 | < 1 |  | 
50 | CNC(=O)C1CCN(c2nc3sc(C(=O)Nc4ccc5oc(C)nc5c4)cc3s2)CC1 [Compound 212] | 1 to 20 (≈ 0.456 to 9.11 µg/mL) | < 1 |  | 
51 | COc1ccc(NC(=O)c2cc3sc(N4CCC(O)C4)nc3s2)cc1 (stereo not drawn) [Compound 130] | 1 to 20 (≈ 0.375 to 7.51 µg/mL) | < 1 |  | 
52 | O=C(Nc1ccc(F)cc1)c1cc2sc(NC3CCCN(c4ccc(F)cc4)C3)nc2s1 (stereo not drawn) [Compound 318] | > 20 | < 1 |  | 
53 | Cc1nc2cc(NC(=O)c3cc4sc(N5CCOC(CO)C5)nc4s3)ccc2o1 (stereo not drawn) [Compound 152] | 1 to 20 (≈ 0.431 to 8.61 µg/mL) | 1 to 20 (≈ 0.431 to 8.61 µg/mL) |  | 
54 | O=C(Nc1ccc(-c2ccc(F)nc2)cc1)c1cc2sc(NCCN3CCOCC3)nc2s1 [Compound 288] | < 1 | < 1 |  | 
55 | Cc1nc2cc(NC(=O)c3cc4sc(N(CCO)C(C)C)nc4s3)ccc2o1 [Compound 232] | 1 to 20 (≈ 0.417 to 8.33 µg/mL) | < 1 |  | 
56 | Cc1nc2cc(NC(=O)c3cc4sc(N5CCC(Cc6ccc(Cl)cc6)CC5)nc4s3)ccc2o1 [Compound 236] | > 20 | < 1 |  | 
57 | CN(C)c1nc2sc(C(=O)Nc3ccc4oc(-c5ccc(F)cc5)nc4c3)cc2s1 [Compound 210] | > 20 | > 20 |  | 
58 | CN(C)C(=O)CC1CCN(c2nc3sc(C(=O)Nc4ccc(F)cc4)cc3s2)CC1 [Compound 331] | < 1 | < 1 |  | 
59 | Cc1nc2cc(NC(=O)c3cc4sc(N5CCC(NC(=O)CC(C)(C)C)CC5)nc4s3)ccc2o1 [Compound 305] | > 20 | < 1 |  | 
60 | CCc1ccc(NC(=O)c2cc3nc(N4CCCCC4)sc3s2)cc1 [Compound 12] | > 20 | > 20 |  | 
61 | Cc1nc2cc(NC(=O)c3cc4sc(N5CCN6CCCC6C5)nc4s3)ccc2o1 (stereo not drawn) [Compound 323] | < 1 | < 1 |  | 
62 | O=C(Nc1ccc(F)cc1)c1cc2sc(N3CCC(C(=O)c4ccc(Cl)cc4)CC3)nc2s1 [Compound 241] | > 20 | < 1 |  | 
63 | COc1ccc(NC(=O)c2cc3nc(N4CCCCC4)sc3s2)cc1 [Compound 2] | > 20 | > 20 |  | 
64 | Cc1nc2cc(CNC(=O)c3cc4sc(N5CCOCC5)nc4s3)ccc2o1 [Compound 229] | > 20 | 1 to 20 (≈ 0.415 to 8.29 µg/mL) |  | 
65 | CN(C)C(=O)[C@H]1CCN(c2nc3sc(C(=O)Nc4ccc(-c5ccc(F)nc5)cc4)cc3s2)C1 [Compound 298] | < 1 | < 1 |  | 
66 | Cc1nc2cc(NC(=O)c3cc4sc(N5CCC(CC(=O)N(C)C)CC5)nc4s3)ccc2o1 [Compound 307] | < 1 | < 1 |  | 
